{
  "source": "paper PMC11678797",
  "about": "“A Repurposed Drug Selection Pipeline to Identify CNS-Penetrant Drug Candidates for Glioblastoma” (Pharmaceuticals, 2024)",
  "key": {"[1]": {"test": "Pharmacokinetics of omacetaxine in orthotopic glioblastoma PDX and naïve NOD/SCID mice (LC-MS/MS of plasma, brain, liver)", "format": "in vivo, mouse", "method": "An amount of 10 μL medium samples was vortex-mixed with 30 μL of acetonitrile: formic acid (100:1 v/v) containing 100 nM RO-3306 Internal Standard). After centrifugation, the supernatant was 5-fold diluted in water. OMA concentrations were measured using an LC-MS/MS system that consisted of an UltiMate 3000 LC System (Dionex, Sunnyvale, CA, USA) and an API 4000 mass spectrometer (Sciex, Framingham, MA, USA). Samples were analyzed using a ZORBAX Extend-C18 column (Agilent, Santa Clara, CA, USA), preceded by a Security-guard C18 pre-column (Phenomenex, Utrecht, The Netherlands). Elution was performed using a mixture of mobile phase A (0.1% formic acid in water (v/v)) and mobile phase B (methanol) in a 5 min gradient from 20% to 95% B, followed by 95% B that was maintained for 3 min and then re-equilibrated at 20% B. Multiple reaction monitoring parameters were 546.6/298.1 (OMA) and 352.1/186.0 (RO-3306).\nNon-obese diabetic severe combined immunodeficient (NOD/SCID) female mice 6–8 weeks of age were used for this study. All experiments were ethically approved by the local Animal Experiments Committee. Patient-derived glioblastoma cell lines were cultured under serum-free conditions prior to injection into the mice. Mice were stereotactically injected with GS607, GS832 (both 2.5 × 10^5 in 5 μL) or GBM8 (1 × 10^5 in 3 μL) in the right striatum 1.0 mm anteroposterior (AP), 2.0 mm medio lateral (ML) and −2.5 mm dorsal ventral (DV) of bregma suture under aseptic conditions. Mice were monitored daily for signs of persistent abnormal behavior and/or breathing, weight loss >20% and development of neurological symptoms such as convulsions, seizures and/or hemiparesis. Mice were euthanized and the mouse brains harvested for histological and LC/MS/MS analysis.\nA single dose of 1.5 mg/kg of OMA was administered s.c. to glioblastoma-bearing NOD/SCID and naïve non-tumor-bearing mice. Mice received OMA prior to the timepoint drug delivery experiment, ensuring the presence of significant tumor masses. For GS607, this was at 78 days; for GS832 at 90 days; and for GBM8 at 46 days post-tumor implantation, based on previous survival experiments. Blood samples were collected at 15 min, 30 min, 60 min, 120 min and 240 min via the tail vein and/or submandibular vein and placed in EDTA tubes. Mice were euthanized at 60 min, 120 min or 240 min with cervical dislocation. Brains and livers were surgically collected and snap-frozen in liquid nitrogen (N2). To preserve the drug stability in plasma mouse blood, samples were centrifuged immediately upon collection. Plasma was separated by centrifugation at 3500 rpm at 4 °C for 15 min. Both plasma and tissue samples were stored at −80 °C until LC-MS/MS analysis."}, "[2]": {"target": "T1, human P-gp (ABCB1) (Homo sapiens, UniProt P08183)", "T1 construct": "expressed in transfected cells; host or cells: LLC-PK1 (pig kidney) cells transduced with human ABCB1 (LLC-MDR1)", "T1 sequence (P08183 whole entry)": "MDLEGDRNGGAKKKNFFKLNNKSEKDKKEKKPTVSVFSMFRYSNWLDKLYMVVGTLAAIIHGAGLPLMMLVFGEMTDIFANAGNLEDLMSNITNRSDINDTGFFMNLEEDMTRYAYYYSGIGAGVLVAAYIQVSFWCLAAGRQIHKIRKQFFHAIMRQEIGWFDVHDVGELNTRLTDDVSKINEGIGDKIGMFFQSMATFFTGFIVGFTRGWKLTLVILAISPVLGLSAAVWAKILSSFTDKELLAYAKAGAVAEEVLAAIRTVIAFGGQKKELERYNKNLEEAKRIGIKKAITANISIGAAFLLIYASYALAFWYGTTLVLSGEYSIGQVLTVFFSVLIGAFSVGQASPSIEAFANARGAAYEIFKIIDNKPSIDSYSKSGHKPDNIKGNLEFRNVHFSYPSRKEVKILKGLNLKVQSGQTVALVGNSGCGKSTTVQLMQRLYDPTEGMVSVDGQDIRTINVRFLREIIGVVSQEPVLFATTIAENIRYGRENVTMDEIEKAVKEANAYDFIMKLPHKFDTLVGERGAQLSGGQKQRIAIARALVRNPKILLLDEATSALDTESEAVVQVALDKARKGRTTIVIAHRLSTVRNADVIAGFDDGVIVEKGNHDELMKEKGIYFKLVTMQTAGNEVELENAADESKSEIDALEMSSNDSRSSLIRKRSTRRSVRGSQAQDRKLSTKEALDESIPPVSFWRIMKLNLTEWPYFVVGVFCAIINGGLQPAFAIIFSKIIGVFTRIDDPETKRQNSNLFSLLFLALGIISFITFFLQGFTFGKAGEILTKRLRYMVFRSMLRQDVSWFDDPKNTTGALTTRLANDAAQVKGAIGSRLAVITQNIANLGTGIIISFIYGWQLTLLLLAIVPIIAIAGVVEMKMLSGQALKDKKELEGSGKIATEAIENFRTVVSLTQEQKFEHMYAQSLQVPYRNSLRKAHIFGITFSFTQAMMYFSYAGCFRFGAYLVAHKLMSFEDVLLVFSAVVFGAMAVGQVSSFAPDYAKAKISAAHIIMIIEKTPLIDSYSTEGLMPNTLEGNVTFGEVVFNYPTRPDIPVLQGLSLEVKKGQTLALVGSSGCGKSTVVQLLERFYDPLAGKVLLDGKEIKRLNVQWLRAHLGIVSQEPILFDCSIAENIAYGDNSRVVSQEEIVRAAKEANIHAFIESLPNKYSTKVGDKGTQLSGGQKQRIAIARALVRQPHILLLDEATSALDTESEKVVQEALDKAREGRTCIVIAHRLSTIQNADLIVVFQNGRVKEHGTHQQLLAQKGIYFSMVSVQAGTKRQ", "test": "Concentration equilibrium transport assay (CETA), LLC-PK1 cells transduced with human ABCB1", "format": "in vitro ADME", "conditions": "omacetaxine 100 nM, up to 4 h", "method": "In vitro transport studies were performed using the LLC pig kidney cell line (LLC-PK1) and sub-lines transduced with murine Abcb1a (LLC-Mdr1a) or human ABCB1 (LLC-MDR1). Similarly, in vitro transport studies were conducted in the parental Madin–Darby canine kidney (MDCK) type II cell line (MDCK-Parent) and murine Abcg2 (MDCK-Bcrp1) or human ABCG2 (MDCK-BCRP) transduced sublines. Concentration equilibrium transport assays (CETA) were performed as previously described. Briefly, cells were grown on polycarbonate membrane filters (3.0 µm pores, 24 mm diameter; Costar Corning, NY, USA) for 4 days. Next, 2 mL of MEM medium containing 10% FCS and omacetaxine (100 nM) was added to both the apical and basal compartments. Then, [14C]-inulin ([…]) was added basolateral to check the membrane integrity. Zosuquidar 1 μM was added to all wells containing MDCK cells to inhibit endogenous (canine) ABCB1. […] The integrity of the membrane was checked by taking 20 μL samples from both apical and basolateral sides for radioactivity counting. […] OMA concentrations were measured using an LC-MS/MS system that consisted of an UltiMate 3000 LC System (Dionex, Sunnyvale, CA, USA) and an API 4000 mass spectrometer (Sciex, Framingham, MA, USA)."}, "[3]": {"conditions": "humans, cited from earlier work"}},
  "note": "Like-named read-outs stand apart in the source and are kept apart here.",
  "data": [
    {"smiles": "COC(=O)C[C@](O)(CCCC(C)(C)O)C(=O)O[C@@H]1C(OC)=C[C@]23CCCN2CCc2cc4c(cc2[C@H]13)OCO4", "note": "[OMA, Omacetaxine mepesuccinate]", "values": [
      {"measurement": "Kp at 60 min", "setting": "[1]; female, NOD/SCID, mouse, brain, sc, 1.5 mg/kg, GS607-PDX, 60 min, single s.c. dose 1.5 mg/kg, n = 2 blood samples, read-out: [Brain]/[Plasma] Ratio ± SD", "result": 0.23},
      {"measurement": "Kp at 60 min", "setting": "[1]; female, NOD/SCID, mouse, brain, sc, 1.5 mg/kg, GS832-PDX, 60 min, single s.c. dose 1.5 mg/kg, read-out: [Brain]/[Plasma] Ratio ± SD", "result": 0.1},
      {"measurement": "Kp at 120 min", "setting": "[1]; female, NOD/SCID, mouse, brain, sc, 1.5 mg/kg, GS832-PDX, 120 min, single s.c. dose 1.5 mg/kg, read-out: [Brain]/[Plasma] Ratio ± SD", "result": "0.37 ± 0.24"},
      {"measurement": "Kp at 240 min", "setting": "[1]; female, NOD/SCID, mouse, brain, sc, 1.5 mg/kg, GS832-PDX, 240 min, single s.c. dose 1.5 mg/kg, read-out: [Brain]/[Plasma] Ratio ± SD", "result": 0.5},
      {"measurement": "Kp at 60 min", "setting": "[1]; female, NOD/SCID, mouse, brain, sc, 1.5 mg/kg, naïve non-tumor-bearing mice, 60 min, single s.c. dose 1.5 mg/kg, read-out: [Brain]/[Plasma] Ratio ± SD", "result": "0.05 ± 0.01"},
      {"measurement": "Kp at 60 min", "setting": "[1]; female, NOD/SCID, mouse, brain, subcutaneous, 1.5 mg/kg, stated as at 60 min, range across PDX models, read-out: B/P ratio across the PDX models", "result": "0.12 to 0.5"},
      {"measurement": "concentration at 60 min", "setting": "[1]; female, NOD/SCID, mouse, liver, sc, 1.5 mg/kg, GBM8 PDX, 60 min, single s.c. dose 1.5 mg/kg, n = 6, read-out: [Liver] ± SD", "result": "998 ± 254", "unit": "ng/g"},
      {"measurement": "concentration at 60 min", "setting": "[1]; female, NOD/SCID, mouse, liver, sc, 1.5 mg/kg, GS607-PDX, 60 min, single s.c. dose 1.5 mg/kg, n = 4, read-out: [Liver] ± SD", "result": "1650 ± 163", "unit": "ng/g"},
      {"measurement": "concentration at 60 min", "setting": "[1]; female, NOD/SCID, mouse, liver, sc, 1.5 mg/kg, GS832-PDX, 60 min, single s.c. dose 1.5 mg/kg, n = 5, read-out: [Liver] ± SD", "result": "680 ± 156", "unit": "ng/g"},
      {"measurement": "concentration at 120 min", "setting": "[1]; female, NOD/SCID, mouse, liver, sc, 1.5 mg/kg, GS832-PDX, 120 min, single s.c. dose 1.5 mg/kg, n = 5, read-out: [Liver] ± SD", "result": "338 ± 94", "unit": "ng/g"},
      {"measurement": "concentration at 240 min", "setting": "[1]; female, NOD/SCID, mouse, liver, sc, 1.5 mg/kg, GS832-PDX, 240 min, single s.c. dose 1.5 mg/kg, n = 5, read-out: [Liver] ± SD", "result": "190 ± 48", "unit": "ng/g"},
      {"measurement": "concentration at 60 min", "setting": "[1]; female, NOD/SCID, mouse, liver, sc, 1.5 mg/kg, naïve non-tumor-bearing mice, 60 min, single s.c. dose 1.5 mg/kg, n = 2, read-out: [Liver] ± SD", "result": "715.9 ± 4.6", "unit": "ng/g"},
      {"measurement": "concentration at 60 min", "setting": "[1]; female, NOD/SCID, mouse, plasma, sc, 1.5 mg/kg, GBM8 PDX, 60 min, single s.c. dose 1.5 mg/kg, n = 6, read-out: [Plasma] ± SD", "result": "391 ± 58", "unit": "ng/mL"},
      {"measurement": "concentration at 60 min", "setting": "[1]; female, NOD/SCID, mouse, plasma, sc, 1.5 mg/kg, GS607-PDX, 60 min, single s.c. dose 1.5 mg/kg, n = 2 blood samples, read-out: [Plasma] ± SD", "result": "88 ± 9", "unit": "ng/mL"},
      {"measurement": "concentration at 15 min", "setting": "[1]; female, NOD/SCID, mouse, plasma, sc, 1.5 mg/kg, GS832-PDX NOD/SCID mice, single s.c. dose 1.5 mg/kg, 15 min (Table 1), read-out: [Plasma] ± SD", "result": "396 ± 59", "unit": "ng/mL"},
      {"measurement": "concentration at 30 min", "setting": "[1]; female, NOD/SCID, mouse, plasma, sc, 1.5 mg/kg, GS832-PDX NOD/SCID mice, single s.c. dose 1.5 mg/kg, 30 min (Table 1), read-out: [Plasma] ± SD", "result": "282 ± 65.4", "unit": "ng/mL"},
      {"measurement": "concentration at 60 min", "setting": "[1]; female, NOD/SCID, mouse, plasma, sc, 1.5 mg/kg, GS832-PDX NOD/SCID mice, single s.c. dose 1.5 mg/kg, 60 min (Table 1, n = 9), read-out: [Plasma] ± SD", "result": "166 ± 29", "unit": "ng/mL"},
      {"measurement": "concentration at 120 min", "setting": "[1]; female, NOD/SCID, mouse, plasma, sc, 1.5 mg/kg, GS832-PDX NOD/SCID mice, single s.c. dose 1.5 mg/kg, 120 min (Table 1, n = 10), read-out: [Plasma] ± SD", "result": "57.8 ± 10.8", "unit": "ng/mL"},
      {"measurement": "concentration at 240 min", "setting": "[1]; female, NOD/SCID, mouse, plasma, sc, 1.5 mg/kg, GS832-PDX NOD/SCID mice, single s.c. dose 1.5 mg/kg, 240 min (Table 1), read-out: [Plasma] ± SD", "result": "24 ± 3", "unit": "ng/mL"},
      {"measurement": "concentration at 60 min", "setting": "[1]; female, NOD/SCID, mouse, plasma, sc, 1.5 mg/kg, GS832-PDX, 60 min, single s.c. dose 1.5 mg/kg, n = 5 (Table 2), read-out: [Plasma] ± SD", "result": "186 ± 21.1", "unit": "ng/mL"},
      {"measurement": "concentration at 120 min", "setting": "[1]; female, NOD/SCID, mouse, plasma, sc, 1.5 mg/kg, GS832-PDX, 120 min, single s.c. dose 1.5 mg/kg, n = 5 (Table 2), read-out: [Plasma] ± SD", "result": "55.6 ± 10.7", "unit": "ng/mL"},
      {"measurement": "concentration at 240 min", "setting": "[1]; female, NOD/SCID, mouse, plasma, sc, 1.5 mg/kg, GS832-PDX, 240 min, single s.c. dose 1.5 mg/kg, n = 5 (Table 2), read-out: [Plasma] ± SD", "result": "23.5 ± 0.7", "unit": "ng/mL"},
      {"measurement": "concentration at 60 min", "setting": "[1]; female, NOD/SCID, mouse, plasma, sc, 1.5 mg/kg, naïve non-tumor-bearing mice, 60 min, single s.c. dose 1.5 mg/kg, n = 2, read-out: [Plasma] ± SD", "result": "224 ± 12", "unit": "ng/mL"},
      {"measurement": "Tmax", "setting": "[1]; female, NOD/SCID, mouse, plasma, sc, GS832 tumor-bearing mice, single s.c. dose 1.5 mg/kg, read-out: time of peak concentration in plasma (converted)", "result": 15, "unit": "min"},
      {"measurement": "half-life", "setting": "[1]; female, NOD/SCID, mouse, sc, plasma, GS832 tumor-bearing mice, single s.c. dose 1.5 mg/kg", "result": 50, "unit": "min"},
      {"measurement": "[Brain] ± SD, right hemisphere (non-tumor-bearing)", "setting": "[1]; naïve non-tumor-bearing mice, 60 min, single s.c. dose 1.5 mg/kg, n = 2, 1.5 mg/kg", "result": "16.4 ± 2.9", "unit": "ng/g"},
      {"measurement": "substrate of P-gp (translocation basolateral to apical)", "setting": "[2]", "result": "weak substrate"},
      {"measurement": "time to reach Cmax plasma", "setting": "[3]; s.c. administration", "result": 1, "unit": "h"},
      {"measurement": "Cmax", "setting": "[3]; DrugBank, read-out: reported Cmax plasma value", "result": 43, "unit": "nM"},
      {"measurement": "half-life", "setting": "[3]", "result": 7, "unit": "h"}
    ]}
  ]
}
